The values below are quoted from earlier work in patent US7214387B2, “Sustained release formulations of metformin” (Penwest Pharmaceuticals Company, priority 2002, dated 2007).

The subject of this series is serum lipids.

Molecules are shown by their SMILES.

For `CN(C)C(=N)NC(=N)N` [metformin, N,N-dimethylimidodicarbonimidicdiamide], the “effects on other lipid levels” value (clinical studies) is recorded as “no adverse effects”. Also, the “mean fasting serum triglycerides, total cholesterol, and LDL cholesterol levels” value (particularly when baseline lipid levels were abnormally elevated) was “lowered”.
